Measurements published in ChEMBL document CHEMBL5576115, “Design and synthesis of chromene-1,2,3-triazole benzene sulfonamide hybrids as potent carbonic anhydrase-IX inhibitors against prostate cancer” (RSC Med Chem, 2024).
Calls of active or inactive are those of the source. No cut-off for these calls is given here.

Experiments:
[1] = test system: PC-3; test: Cytotoxicity against human PC-3 cells assessed as reduction in cell viability measured after 48 hrs by MTT assay; format: functional, cell-based; details: PC-3, 48 h
[2] = test system: MCF7; test: Cytotoxicity against human MCF7 cells assessed as reduction in cell viability measured after 48 hrs by MTT assay; format: functional, cell-based; details: MCF7, 48 h
[3] = test system: MCF7; test: Cytotoxicity against human MCF7 cells assessed as reduction in cell viability at 100 uM measured after 48 hrs by MTT assay; format: functional, cell-based
[4] = test system: PC-3; test: Cell cycle arrest in human PC-3 cells assessed as accumulation of cells at G1 phase at cytotoxic IC50 measured after 48 hrs by propidium iodide staining based flow cytometry relative to control; format: functional
[5] = Cytotoxicity against human WI-38 cells assessed as reduction in cell viability measured after 48 hrs by MTT assay; format: toxicity, cell-based
[6] = target: Carbonic anhydrase 9 (Homo sapiens, UniProt Q16790); test: biochemical; format: cell-based, Sf9
Description: Inhibition of human C-terminal His-tagged CA-9 (59 to 414 residues) expressed in baculovirus infected Sf9 insect cells

[7] = test system: PC-3; test: Cytotoxicity against human PC-3 cells assessed as reduction in cell viability at 100 uM measured after 48 hrs by MTT assay; format: functional, cell-based
[8] = test system: WI-38; test: Cytotoxicity against human WI-38 cells assessed as cell death at 100 uM measured after 48 hrs by MTT assay relative to control; format: toxicity, cell-based; details: wi-38, 48 h
[9] = test system: PC-3; test: Cell cycle arrest in human PC-3 cells assessed as accumulation of cells at G2/M phase at cytotoxic IC50 measured after 48 hrs by propidium iodide staining based flow cytometry (reference value: 12.75%); format: functional
[10] = test system: PC-3; test: Induction of apoptosis in human PC-3 cells assessed as accumulation of late apoptotic cells at cytotoxic IC50 measured after 48 hrs by Annexin-V-FITC/propidium iodide staining based flow cytometry relative to control; format: functional
[11] = test system: PC-3; test: Cell cycle arrest in human PC-3 cells assessed as accumulation of cells at S phase at cytotoxic IC50 measured after 48 hrs by propidium iodide staining based flow cytometry (reference value: 19.81%); format: functional
[12] = test system: PC-3; test: Induction of apoptosis in human PC-3 cells assessed as accumulation of early apoptotic cells at cytotoxic IC50 measured after 48 hrs by Annexin-V-FITC/propidium iodide staining based flow cytometry relative to control; format: functional
[13] = test system: PC-3; test: Induction of apoptosis in human PC-3 cells assessed as necrotic cells at cytotoxic IC50 measured after 48 hrs by Annexin-V-FITC/propidium iodide staining based flow cytometry (reference value: 1.61%); format: functional

SMILES | IC50 [1] [µM] | IC50 [2] [µM] | further results
Cc1cc(=O)oc2c(C)c(OCc3cn(-c4ccc(S(=O)(=O)N=C(N)N)cc4)nn3)ccc12 | 29.7 | 56.3 | 
Cc1cc(=O)oc2c(C)c(OCc3cn(-c4ccc(S(=O)(=O)Nc5ccccn5)cc4)nn3)ccc12 | 8.95 | 14.3 | Activity [3]: Active
Cc1cc(=O)oc2c(C)c(OCc3cn(CC(=O)Nc4ccc(S(=O)(=O)Nc5ccccn5)cc4)nn3)ccc12 | 40.1 | 38.9 | 
COc1cccc2c1C(=O)c1c(O)c3c(c(O)c1C2=O)C[C@@](O)(C(=O)CO)C[C@@H]3O[C@H]1C[C@H](N)[C@H](O)[C@H](C)O1 [DOXORUBICIN] | 2.31 | 3.41 | 
O=c1cc(-c2ccccc2)c2c(OCc3cn(-c4ccc(S(=O)(=O)Nc5ccccn5)cc4)nn3)cc(OCc3cn(-c4ccc(S(=O)(=O)Nc5ccccn5)cc4)nn3)cc2o1 | 2.08 | 18 | Activity [4]: 31.9%; IC50 at 48 h [5]: 46.6 µM; IC50 [6]: 0.113 µM; Activity [7]: Active; Activity [8]: 23.6%; Activity [9]: 9.36%; fold change (FC) [10]: 60; Activity [11]: 15.29%; fold change (FC) [12]: >18; Activity [13]: 4.68%
N=C(N)NS(=O)(=O)c1ccc(-n2cc(COc3cc(OCc4cn(-c5ccc(S(=O)(=O)NC(=N)N)cc5)nn4)c4c(-c5ccccc5)cc(=O)oc4c3)nn2)cc1 | 14.6 | 19.1 | Activity [3]: Active
Cc1cc(=O)oc2cc(OCc3cn(-c4ccc(S(=O)(=O)N=C(N)N)cc4)nn3)ccc12 | 23.9 | 76 | 
Cc1cc(C)nc(NS(=O)(=O)c2ccc(-n3cc(COc4cc(OCc5cn(-c6ccc(S(=O)(=O)Nc7nc(C)cc(C)n7)cc6)nn5)c5c(-c6ccccc6)cc(=O)oc5c4)nn3)cc2)n1 | 7.57 | > 100 | IC50 at 48 h [5]: 46.6 µM; IC50 [6]: 0.134 µM; Activity [7]: Active; Activity [8]: 23.6%
Cc1cc(=O)oc2cc(OCc3cn(-c4ccc(S(=O)(=O)Nc5ncccn5)cc4)nn3)ccc12 | 8.31 | 41.4 | 
Cc1cc(C)nc(NS(=O)(=O)c2ccc(-n3cc(COc4ccc5c(C)cc(=O)oc5c4C)nn3)cc2)n1 | 21.4 | 41.1 | 
O=C(Cn1cc(COc2cc(OCc3cn(CC(=O)Nc4ccc(S(=O)(=O)Nc5ccccn5)cc4)nn3)c3c(-c4ccccc4)cc(=O)oc3c2)nn1)Nc1ccc(S(=O)(=O)Nc2ccccn2)cc1 | 5.52 | 57.2 | IC50 at 48 h [5]: 46.6 µM; IC50 [6]: 0.214 µM; Activity [7]: Active; Activity [8]: 23.6%
Cc1cc(=O)oc2cc(OCc3cn(-c4ccc(S(=O)(=O)Nc5ccccn5)cc4)nn3)ccc12 | 15.8 | 32 | 
Cc1cc(=O)oc2cc(OCc3cn(CC(=O)Nc4ccc(S(=O)(=O)Nc5ccccn5)cc4)nn3)ccc12 | 58.9 | 17 | Activity [3]: Active
Cc1cc(=O)oc2c(C)c(OCc3cn(-c4ccc(S(=O)(=O)Nc5ncccn5)cc4)nn3)ccc12 | 12.5 | 16.7 | 
O=c1cc(-c2ccccc2)c2c(OCc3cn(-c4ccc(S(=O)(=O)Nc5ncccn5)cc4)nn3)cc(OCc3cn(-c4ccc(S(=O)(=O)Nc5ncccn5)cc4)nn3)cc2o1 | 11.6 | 66.7 | 
Cc1cc(C)nc(NS(=O)(=O)c2ccc(-n3cc(COc4ccc5c(C)cc(=O)oc5c4)nn3)cc2)n1 | 9.98 | 97.5 | 
